Results from patent US11795218B2, “Diagnosis and therapy of cancer involving cancer stem cells” (BioNTech AG, priority 2014, dated 2023).
Counter-ions that a name gives are not always drawn.

Assays:
[1] = tested on: human NEC14 xenograft tumors; assay: Advanced NEC14 subcutaneous xenograft tumor model, IMAB027 with cisplatin or carboplatin; assay type: in vivo, mice; conditions: advanced s.c. NEC14 xenograft; cisplatin 1 mg/kg i.p. day 6-10; carboplatin 30 mg/kg i.p. day 6, 13, 20; IMAB027 35 mg/kg three times a week from day 6
Method: Subcutaneous human NEC14 xenograft tumors were grown to a median size of ˜100 mm^3 before the beginning of the treatment. Mice were treated with 1 mg/kg cisplatin by i.p. injections daily from day 6 to 10 post engraftment and with three 35 mg/kg IMAB027 injections per week (alternating i.v./i.p./i.p.) starting on day 6 as maintenance therapy. […] The arrow marks the time point of therapy start. (B) Individual tumor size in mice at day 24 post graft (mean with ±standard diviation). (C) Survival curves of treated mice. Group size: n=19. P-values: *, p<0.05; **, p<0.01 and ***, p<0.001.
Instead of cisplatin, mice were treated with 30 mg/kg carboplatin on days 6, 13 and 20 by bolus i.p. injections. […] The arrow marks the time point of therapy start. (B) Individual tumor size in mice at day 24 post graft (mean with ±standard diviation). (C) Survival curves of treated mice. Group size: n=19. P-values: *, p<0.05; **, p<0.01 and ***, p<0.001. […]
For treatment of advanced human NEC14 xenograft tumors the human testicular germ cell tumor cell line NEC14 was cultivated according to the instructions of the supplier in RPMI 1640 medium GlutaMAX™ (Life Technologies) containing 10% FCS (Life Technologies) at 3TC in a humidified incubator with 5% CO2. […] Tumor burden were monitored twice a week. […] Inhibition of tumor growth was analyzed using the Kruskal-Wallis test and the post-hoc Dunn's multiple comparison test.

COV362(Luc) cells = assay: CLDN6 surface expression on COV362(Luc) cells after pretreatment with cytostatic agents (flow cytometry); assay type: cell-based, human; conditions: 4 days drug (5 ng/ml paclitaxel, 20 μg/ml carboplatin, 25 ng/ml gemcitabine, 20 ng/ml doxorubicin, 7.5 ng/ml topotecan), then 3 or 10 days without drug
Method: ADCC activity of IMAB027 in combination with chemotherapy was analyzed using COV362(Luc) target cells. Therefore, cells were treated for 4 days with carboplatin, gemcitabine, paclitaxel, doxorubicin or topotecan at indicated concentrations. After treatment, cells were grown for 3 (A-D) and 10 days (E-J) in the absence of cytostatic drugs, respectively. Control cells were cultured without cytostatics. (A, C, E, G, I) ADCC experiments were performed with IMAB027 (black lines) or an isotype control antibody (grey lines) using PBMC from healthy donors at an effector (PBMC) to target cell ratio of ˜40:1. Data points (n=4 replicates) are depicted as mean±SD. (B, D, F, H, J) Expression of CLDN6 was analyzed by flow cytometry using IMAB027.
The cells were washed twice and resuspended in FACS buffer. The binding was analysed by flow cytometry using a BD FACSArray (BD Biosciences) and FlowJo software (Tree Star Inc.). The live/dead dye propidium iodide (Sigma, P4864) was used to exclude dead cells from the analysis.
The human ovarian carcinoma cell line COV362 stably transfected with luciferase as a reporter was used to determine the influence of carboplatin and paclitaxel on IMAB027-mediated ADCC. COV362(Luc) cells (3×10^6 cells per 150 mm cell culture dish) were grown under standard conditions. After 24 h, cells were treated with 5 ng/ml paclitaxel, 20 μg/ml carboplatin, 25 ng/ml gemcitabine, 20 ng/ml doxorubicin or 7.5 ng/ml topotecan and incubated for 4 days. The medium was changed and the treated cells were grown under standard growth conditions for further 3 days for carboplatin and gemcitabine or 10 days for paclitaxel, doxorubicin or topotecan.

[2] = tested on: human ES-2(CLDN6) xenograft tumors; assay: Early ES-2(CLDN6) subcutaneous xenograft tumor model, IMAB027 with paclitaxel; assay type: in vivo, mice; conditions: s.c. ES-2(CLDN6) xenograft; paclitaxel 15 mg/kg i.p. day 3, 10, 17; IMAB027 35 mg/kg three times a week from day 4; vs control group
Method: Subcutaneous human ES-2 xenograft tumors ectopically expressing human CLDN6 were treated with 15 mg/kg paclitaxel on day 3, 10 and 17 post graft by i.p. injections. Antibody maintenance therapy started on day 4 with three 35 mg/kg IMAB027 injections per week (alternating i.v./i.p./i.p.).
Hsd:Athymic Nude-Foxn1^nu mice were engrafted with human cancer cell lines. […] The control group received antibody buffer (vehicle control).
Specifically, for treatment of human ES-2(CLDN6) xenograft tumors, the human ovarian carcinoma cell line ES-2 stably transfected with human CLDN6 was cultivated in Minimum Essential Media (Life Technologies) containing 1 x non-essential amino acids solution (Life Technologies), 700 μg/ml G418 (Life Technologies) and 10% FCS (Life Technologies) at 3TC in a humidified incubator with 5% CO2. For engraftment, 6 week-old female Hsd:Athymic Nude-Foxn1^nu mice were subcutaneously inoculated with 5×10^6 ES-2(CLDN6) cells in 200 μl PBS into the flank. On day 3 post subcutaneous tumor inoculation, mice were treated with either saline control, antibody or chemotherapeutic drug monotherapy and antibody/cytostatic drug combination therapy groups (n=12 per group). […] Tumor burden and animal health were monitored twice a week. […] Inhibition of tumor growth was analyzed using the Kruskal-Wallis test and the post-hoc Dunn's multiple comparison test.

| Structure (SMILES) | tumor growth / anti-tumoral efficacy [1] | protein levels of CLDN6 on the cell surface after pretreatment (COV362(Luc) cells) | tumor growth / anti-tumoral activity [2] |
| --- | --- | --- | --- |
| N.N.[Cl][Pt][Cl] [cisplatin, cis-diamminedichloroplatinum(II)] | highly significantly reduce tumor growth |  |  |
| COc1cccc2c1C(=O)c1c(O)c3c(c(O)c1C2=O)C[C@@](O)(C(=O)CO)C[C@@H]3O[C@H]1C[C@H](N)[C@H](O)[C@H](C)O1 [doxorubicin] |  | increased protein levels of CLDN6 on the cell surface |  |
| Nc1ccn([C@@H]2O[C@H](CO)[C@@H](O)C2(F)F)c(=O)n1 [gemcitabine, 4-amino-1-(2-deoxy-2,2-difluoro-β-D-erythro-pentofuranosyl)pyrimidin-2 (1H)-one] |  | increased protein levels of CLDN6 on the cell surface |  |
| CC(=O)O[C@H]1C(=O)[C@@]2(C)[C@H]([C@H](OC(=O)c3ccccc3)[C@]3(O)C[C@H](OC(=O)[C@H](O)[C@@H](NC(=O)c4ccccc4)c4ccccc4)C(C)=C1C3(C)C)[C@]1(OC(C)=O)CO[C@@H]1C[C@@H]2O [paclitaxel, (2α,4α,5β,7β,10β,13α)-4,10-bis-(acetyloxy)-13-{[(2R,3S)-3-(benzoylamino)-2-hydroxy-3-phenylpropanoyl]oxy}-1,7-dihydroxy-9-oxo-5,20-epoxytax-11-en-2-yl benzoate] |  | increased protein levels of CLDN6 on the cell surface | does not show anti-tumoral activity |
| CC[C@@]1(O)C(=O)OCc2c1cc1n(c2=O)Cc2cc3c(CN(C)C)c(O)ccc3nc2-1 [topotecan, (S)-10-[(dimethylamino)methyl]-4-ethyl-4,9-dihydroxy-1H-pyrano[3′,4′:6,7]indolizino[1,2-b]quinoline-3,14(4H,12H)-dione monohydrochloride] |  | increased protein levels of CLDN6 on the cell surface |  |
